Patent US8999966B2, “Compounds that are ERK inhibitors” (Merck Sharp & Dohme Corp., priority 2010, dated 2015)

Target: fully phosphorylated, active Mouse ERK2 protein (Mus musculus, UniProt P63085)
Assay: Active ERK2 assay (AERK2), IMAP format
Assay type: biochemical
Conditions: activated ERK2, IMAP fluorescence polarization, 30 μM ATP
Method: 14 μl of kinase buffer (10 mM Tris.HCl pH 7.2, 10 mM MgCl2, 0.01% Tween-20, 1 mM DTT) containing 0.4 ng unphosphorylated Mouse ERK2 protein can be added to each well of a black 384-well assay plate. […] DMSO concentration during initial incubation is 6.7%. ERK2 activity can be determined to be insensitive to DMSO concentrations up to 20%. ERK2 can then be activated and it's kinase activity can be measured by the addition of 10 μl kinase buffer with the following components (final concentration per reaction): 2 ng active (phosphorylated) human MEK1 protein and 4 μM (total) ERK2 IMAP substrate peptides (3.9 μM unlabeled IPTTPITTTYFFFK-CONH2 and 100 nM IPTTPITTTYFFFK(5-carboxyfluorescein)-CONH2) and 30 μM ATP. DMSO concentration during ERK activation can be 4%. After one hour, reactions can be terminated by addition of 60 μl IMAP detections beads in binding buffer (Molecular Devices). Binding can be allowed to equilibrate for 30 minutes before reading the plate on an LJL Analyst Fluorescence Polarization plate reader. […] Active compounds can be reconfirmed in an independent assay.
Activated ERK2 activity was also determined in the IMAP assay format using the procedure outlined above. 1 μl of 25× compound was added to 14 μl of kinase buffer containing 0.25 ng fully phosphorylated, active Mouse ERK2 protein. Following a 30 minute incubation, the reactions were initiated by addition of 10 μl of kinase buffer containing 1 μM ERK2 IMAP substrate peptide (0.9 μM unlabeled IPTTPITTTYFFFK-CONH2 and 100 nM IPTTPITTTYFFFK(5-carboxyfluorescein)-CONH2) and 30 μM ATP. Reactions proceeded for 30 minutes before termination by addition of 60 μl IMAP detection beads in binding buffer. Plates were read as above after 30 minute binding equilibration. Active compounds were reconfirmed in an independent assay.

Chain of fully phosphorylated, active Mouse ERK2 protein (P63085 whole entry): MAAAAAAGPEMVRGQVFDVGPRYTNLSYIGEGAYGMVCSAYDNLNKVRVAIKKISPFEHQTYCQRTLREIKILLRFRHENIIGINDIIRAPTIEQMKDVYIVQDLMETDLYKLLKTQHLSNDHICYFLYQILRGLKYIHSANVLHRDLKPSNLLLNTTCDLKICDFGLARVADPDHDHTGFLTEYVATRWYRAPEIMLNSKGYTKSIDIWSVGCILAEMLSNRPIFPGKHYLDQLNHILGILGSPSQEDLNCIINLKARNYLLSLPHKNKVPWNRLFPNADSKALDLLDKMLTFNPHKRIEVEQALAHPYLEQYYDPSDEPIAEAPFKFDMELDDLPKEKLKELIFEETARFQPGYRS

Row | SMILES | IC50 [nM]
1 | COc1cccc(F)c1CN1CCOC(c2cn(-c3ccc4[nH]nc(-c5ccncc5)c4c3)nn2)C1 (centres unmarked) [Example 251, 5-[4-[4-[(2-FLUORO-6- METHOXYPHENYL)METHYL]- 2-MORPHOLINYL]-1H- 1,2,3-TRIAZOL-1-YL]-3-(4- PYRIDINYL)-1H-INDAZOLE] | 0.3 to 10.4
2 | Cn1cc(CN2CCC[C@@H](c3nnc(-c4ccc5[nH]nc(-c6ccc7nccn7c6)c5c4)o3)C2)c2ccccc21 [Example 328, 3-IMIDAZO[1,2-a]PYRIDIN-6- YL-5-[5-[1-[(1-METHYL-1H- INDOL-3-YL)METHYL]-3(R)- PIPERIDINYL]-1,3,4- OXADIAZOL-2-YL]-1H- INDAZOLE] | > 1000
3 | CCn1cc(-c2n[nH]c3ccc(-c4nnc([C@@H]5CCCN(Cc6csc7ccccc67)C5)o4)cc23)cn1 [Example 339, 5-[5-[1-(BENZO[b]THIEN-3- YLMETHYL)-3(R)- PIPERIDINYL]-1,3,4- OXADIAZOL-2-YL]-3-(1- ETHYL-1H-PYRAZOL-4-YL)- 1H-INDAZOLE] | > 1000
4 | COc1cccc(F)c1CN1CCCCC1c1nc(-c2ccc3[nH]nc(-c4ccc(OC(C)C)cc4)c3c2)n[nH]1 (centres unmarked) [Example 259, 5-[5-[1-[(2-FLUORO-6- METHOXYPHENYL)METHYL]- 2-PIPERIDINYL]-1H-1,2,4- TRIAZOL-3-YL]-3-[4-(1- METHYLETHOXY)PHENYL]- 1H-INDAZOLE] | > 1000
5 | CC(=O)Nc1cc(-c2n[nH]c3ccc(-c4nnc([C@@H]5CCCN(Cc6ccc7nccnc7c6)C5)o4)cc23)ccc1O [Example 316, N-[2-HYDROXY-5-[5-[5-[1-(6- QUINOXALINYLMETHYL)- 3(R)-PIPERIDINYL]-1,3,4- OXADIAZOL-2-YL]-1H- INDAZOL-3- YL]PHENYL]ACETAMIDE] | ≥ 504
6 | CCn1cc(-c2n[nH]c3ccc(-c4nnc([C@@H]5CCCN(Cc6cn(C)c7ccccc67)C5)o4)cc23)cn1 [Example 341, 3-(1-ETHYL-1H-PYRAZOL-4- YL)-5-[5-[1-[(1-METHYL-1H- INDOL-3-YL)METHYL]-3(R)- PIPERIDINYL]-1,3,4- OXADIAZOL-2-YL]-1H- INDAZOLE] | > 1000
7 | Fc1ccccc1CN1CCCC(c2nnc(-c3ccc4[nH]nc(-c5ccncc5)c4c3)o2)C1 (centres unmarked) [Example 306, 5-[5-[1-[(2- FLUOROPHENYL)METHYL]- 3-PIPERIDINYL]-1,3,4- OXADIAZOL-2-YL]-3-(4- PYRIDINYL)-1H-INDAZOLE] | 0.3 to 10.4
8 | COc1cccc(F)c1CN1CCCCC1c1nc(-c2ccc3[nH]nc(-c4ccc5c(c4)CCO5)c3c2)n[nH]1 (centres unmarked) [Example 258, 3-(2,3-DIHYDRO-5- BENZOFURANYL)-5-[5-[1-[(2- FLUORO-6- METHOXYPHENYL)METHYL]- 2-PIPERIDINYL]-1H-1,2,4- TRIAZOL-3-YL]-1H- INDAZOLE] | > 1000
9 | CC(C)Oc1ccc(-c2n[nH]c3ccc(-c4n[nH]c([C@@H]5CCCN(Cc6cccs6)C5)n4)cc23)cc1 [Example 304, 3-[4-(1- METHYLETHOXY)PHENYL]- 5-[5-[1-(2- THIENYLMETHYL)-3(R)- PIPERIDINYL]-1H-1,2,4- TRIAZOL-3-YL]-1H- INDAZOLE] | ≥ 504
10 | Cn1cc2cc(-c3n[nH]c4ccc(-c5nnc([C@@H]6CCCN(Cc7cc8ccccc8n7C)C6)o5)cc34)ccc2n1 [Example 321, 3-(2-METHYL-2H-INDAZOL- 5-YL)-5-[5-[1-[(1-METHYL- 1H-INDOL-2-YL)METHYL]- 3(R)-PIPERIDINYL]-1,3,4- OXADIAZOL-2-YL]-1H- INDAZOLE] | > 1000
11 | CC1(C)Cc2cc(-c3n[nH]c4ccc(-c5n[nH]c([C@@H]6CCCN(Cc7c(F)cccc7F)C6)n5)cc34)ccc2O1 [Example 300, 5-[5-[1-[(2,6- DIFLUOROPHENYL)METHYL]- 3(R)-PIPERIDINYL]-1H- 1,2,4-TRIAZOL-3-YL]-3-(2,3- DIHYDRO-2,2-DIMETHYL-5- BENZOFURANYL)-1H- INDAZOLE] | ≥ 504
12 | Cc1noc(C)c1-c1n[nH]c2ccc(-c3n[nH]c([C@@H]4CCCN(Cc5c(F)cccc5F)C4)n3)cc12 [Example 303, 5-[5-[1-[(2,6- DIFLUOROPHENYL)METHYL]- 3(R)-PIPERIDINYL]-1H- 1,2,4-TRIAZOL-3-YL]-3-(3,5- DIMETHYL-4-ISOXAZOLYL)- 1H-INDAZOLE] | ≥ 504
13 | Cn1c(CN2CCC[C@@H](c3nnc(-c4ccc5[nH]nc(-c6ccc7nccn7c6)c5c4)o3)C2)cc2ccccc21 [Example 329, 3-IMIDAZO[1,2-a]PYRIDIN-6- YL-5-[5-[1-[(1-METHYL-1H- INDOL-2-YL)METHYL]-3(R)- PIPERIDINYL]-1,3,4- OXADIAZOL-2-YL]-1H- INDAZOLE] | > 1000
14 | C1=CCN(Cc2cccs2)[C@@H](c2nc(-c3ccc4[nH]nc(-c5ccc6c(c5)CCO6)c4c3)n[nH]2)C1 [Example 255, 3-(2,3-DIHYDRO-5- BENZOFURANYL)-5-[5- [1,2,3,6-TETRAHYDRO-1-(2- THIENYLMETHYL)-2(R)- PYRIDINYL]-1H-1,2,4- TRIAZOL-3-YL]-1H- INDAZOLE] | ≥ 504
15 | C1=CCN(Cc2ccon2)[C@@H](c2nc(-c3ccc4[nH]nc(-c5ccc6c(c5)CCO6)c4c3)n[nH]2)C1 [Example 256, 3-(2,3-DIHYDRO-5- BENZOFURANYL)-5-[5- [1,2,3,6-TETRAHYDRO-1-(3- ISOXAZOLYLMETHYL)-2(R)- PYRIDINYL]-1H-1,2,4- TRIAZOL-3-YL]-1H- INDAZOLE] | ≥ 504

More lines, now with the values ahead:

Row | IC50 [nM] | SMILES
16 | ≥ 504 | Clc1cc(-c2n[nH]c3ccc(-c4nnc([C@@H]5CCCN(CC6CCCCC6)C5)o4)cc23)ccn1 [Example 362, 3-(2-CHLORO-4-PYRIDINYL)- 5-[5-[1- (CYCLOHEXYLMETHYL)- 3(R)-PIPERIDINYL]-1,3,4- OXADIAZOL-2-YL]-1H- INDAZOLE]
17 | ≥ 504 | COc1cccc(CN2CCC[C@@H](c3nnc(-c4ccc5[nH]nc(-c6ccnc(Cl)c6)c5c4)o3)C2)n1 [Example 361, 3-(2-CHLORO-4-PYRIDINYL)- 5-[5-[1-[(6-METHOXY-2- PYRIDINYL)METHYL]-3(R)- PIPERIDINYL]-1,3,4- OXADIAZOL-2-YL]-1H- INDAZOLE]
18 | > 1000 | Clc1cc(-c2n[nH]c3ccc(-c4nnc([C@@H]5CCCN(Cc6csc7ccccc67)C5)o4)cc23)ccn1 [Example 354, 5-[5-[1-(BENZO[b]THIEN-3- YLMETHYL)-3(R)- PIPERIDINYL]-1,3,4- OXADIAZOL-2-YL]-3-(2- CHLORO-4-PYRIDINYL)-1H- INDAZOLE]
19 | ≥ 504 | Clc1cc(-c2n[nH]c3ccc(-c4nnc([C@@H]5CCCN(Cc6cc7ccccc7o6)C5)o4)cc23)ccn1 [Example 357, 5-[5-[1-(2- BENZOFURANYLMETHYL)- 3(R)-PIPERIDINYL]-1,3,4- OXADIAZOL-2-YL]-3-(2- CHLORO-4-PYRIDINYL)-1H- INDAZOLE]
20 | ≥ 504 | Fc1ccccc1CN1CCC[C@@H](c2nnc(-c3ccc4[nH]nc(-c5ccnc(Cl)c5)c4c3)o2)C1 [Example 353, 3-(2-CHLORO-4-PYRIDINYL)- 5-[5-[1-[(2- FLUOROPHENYL)METHYL]- 3(R)-PIPERIDINYL]-1,3,4- OXADIAZOL-2-YL]-1H- INDAZOLE]
21 | > 1000 | c1ccc2oc(CN3CCC[C@@H](c4nnc(-c5ccc6[nH]nc(-c7ccc8occc8c7)c6c5)o4)C3)cc2c1 [Example 350, 3-(5-BENZOFURANYL)-5-[5- [1-(2- BENZOFURANYLMETHYL)- 3(R)-PIPERIDINYL]-1,3,4- OXADIAZOL-2-YL]-1H- INDAZOLE]
22 | > 1000 | CCn1cc(-c2n[nH]c3ccc(-c4nnc([C@@H]5CCCN(Cc6cc7ccccc7n6C)C5)o4)cc23)cn1 [Example 342, 3-(1-ETHYL-1H-PYRAZOL-4- YL)-5-[5-[1-[(1-METHYL-1H- INDOL-2-YL)METHYL]-3(R)- PIPERIDINYL]-1,3,4- OXADIAZOL-2-YL]-1H- INDAZOLE]
23 | > 1000 | COc1cccc(F)c1CN1CCCC(c2ccn(-c3ccc4[nH]nc(-c5ccncc5)c4c3)n2)C1 (centres unmarked) [Example 368, 5-[3-[1-[(2-FLUORO-6- METHOXYPHENYL)METHYL]- 3-PIPERIDINYL]-1H- PYRAZOL-1-YL]-3-(4- PYRIDINYL)-1H-INDAZOLE]
24 | > 1000 | CCn1cc(-c2n[nH]c3ccc(-c4nnc([C@@H]5CCCN(Cc6cc(F)c(Cl)cc6Cl)C5)o4)cc23)cn1 [Example 345, 5-[5-[1-[(2,4-DICHLORO-5- FLUOROPHENYL)METHYL]- 3(R)-PIPERIDINYL]-1,3,4- OXADIAZOL-2-YL]-3-(1- ETHYL-1H-PYRAZOL-4-YL)- 1H-INDAZOLE]
25 | ≥ 504 | Clc1cc(-c2n[nH]c3ccc(-c4nnc([C@@H]5CCCN(Cc6cc7ccccc7s6)C5)o4)cc23)ccn1 [Example 359, 5-[5-[1-(BENZO[b]THIEN-2- YLMETHYL)-3(R)- PIPERIDINYL]-1,3,4- OXADIAZOL-2-YL]-3-(2- CHLORO-4-PYRIDINYL)-1H- INDAZOLE]
26 | ≥ 504 | Fc1cc(CN2CCC[C@@H](c3nnc(-c4ccc5[nH]nc(-c6ccnc(Cl)c6)c5c4)o3)C2)c(Cl)cc1Cl [Example 358, 3-(2-CHLORO-4-PYRIDINYL)- 5-[5-[1-[(2,4-DICHLORO-5- FLUOROPHENYL)METHYL]- 3(R)-PIPERIDINYL]-1,3,4- OXADIAZOL-2-YL]-1H- INDAZOLE]
